According to US12263172B2, “Toll-like receptor agonists for use in the treatment of hepatitis b” (priority 2019, dated 2025):

Columns and labels:
[1] = molecular target: T1, human TLR7 (Homo sapiens, UniProt Q9NYK1); experiment: activation of human TLR7 (LEC); assay type: cell-based
T1 sequence (Q9NYK1 27-1049): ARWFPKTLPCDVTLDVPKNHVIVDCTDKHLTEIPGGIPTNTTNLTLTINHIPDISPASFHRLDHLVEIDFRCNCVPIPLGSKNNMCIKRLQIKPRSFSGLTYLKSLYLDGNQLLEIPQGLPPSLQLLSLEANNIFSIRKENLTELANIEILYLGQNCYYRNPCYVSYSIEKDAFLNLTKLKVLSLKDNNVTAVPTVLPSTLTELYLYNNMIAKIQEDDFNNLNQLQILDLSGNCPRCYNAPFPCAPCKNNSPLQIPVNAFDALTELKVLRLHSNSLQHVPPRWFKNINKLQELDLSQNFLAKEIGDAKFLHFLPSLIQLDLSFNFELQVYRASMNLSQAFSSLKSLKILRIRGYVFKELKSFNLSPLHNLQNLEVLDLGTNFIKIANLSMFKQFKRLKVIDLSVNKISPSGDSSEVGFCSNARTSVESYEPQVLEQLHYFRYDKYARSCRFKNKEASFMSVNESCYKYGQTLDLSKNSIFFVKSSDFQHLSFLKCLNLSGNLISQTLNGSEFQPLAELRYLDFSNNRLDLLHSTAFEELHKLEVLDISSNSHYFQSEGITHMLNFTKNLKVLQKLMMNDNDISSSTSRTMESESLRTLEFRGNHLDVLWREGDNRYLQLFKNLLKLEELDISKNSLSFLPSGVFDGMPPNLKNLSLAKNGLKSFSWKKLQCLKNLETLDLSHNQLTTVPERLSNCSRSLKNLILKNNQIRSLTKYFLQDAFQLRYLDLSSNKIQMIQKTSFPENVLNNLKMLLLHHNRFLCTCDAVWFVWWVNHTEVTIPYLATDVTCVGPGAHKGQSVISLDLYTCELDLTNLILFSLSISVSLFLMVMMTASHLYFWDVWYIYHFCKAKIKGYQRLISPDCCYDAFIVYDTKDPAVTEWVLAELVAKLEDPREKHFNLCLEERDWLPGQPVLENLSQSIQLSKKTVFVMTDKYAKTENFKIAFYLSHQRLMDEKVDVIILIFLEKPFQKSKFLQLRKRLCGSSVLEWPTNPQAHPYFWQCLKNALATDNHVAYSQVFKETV

[2] = molecular target: T2, organic ion transporter 2 (OCT2) (Homo sapiens, UniProt O15244); experiment: OCT2 inhibition in vitro; assay type: in vitro ADME
T2 sequence (O15244 1-555): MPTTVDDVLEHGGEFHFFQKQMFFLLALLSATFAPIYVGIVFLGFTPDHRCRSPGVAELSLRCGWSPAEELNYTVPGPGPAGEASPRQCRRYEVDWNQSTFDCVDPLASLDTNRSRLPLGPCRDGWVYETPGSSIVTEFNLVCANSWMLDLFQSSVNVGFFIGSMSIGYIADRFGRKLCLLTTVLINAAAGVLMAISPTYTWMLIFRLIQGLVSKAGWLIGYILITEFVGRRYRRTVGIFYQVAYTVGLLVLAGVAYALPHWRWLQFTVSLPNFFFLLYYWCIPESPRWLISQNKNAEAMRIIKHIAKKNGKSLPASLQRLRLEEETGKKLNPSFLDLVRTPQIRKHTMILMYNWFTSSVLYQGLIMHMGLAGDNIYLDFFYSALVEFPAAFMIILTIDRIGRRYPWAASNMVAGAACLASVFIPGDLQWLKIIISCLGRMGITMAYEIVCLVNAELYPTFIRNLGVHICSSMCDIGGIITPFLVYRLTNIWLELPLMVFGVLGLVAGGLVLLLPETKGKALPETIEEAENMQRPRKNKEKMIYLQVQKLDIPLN
Source text: (§1) Exposure increased more than dose-proportionally at low doses. Variability in exposure was high. • In vitro plasma protein binding was between 79.6% and 94.2% in animals and humans. Volume of distribution after intravenous dosing was high. […] Main metabolic pathways were oxygenation, hydrogenation, dehydrogenation, dealkylation, acetylation, glucuronidation, and/or glutathione conjugation. • In rats, >80% of drug-related material was found in feces, 11% to 20% in bile, and <4% in urine. […] There were no effects on embryofetal development up to 1 mg/kg/dose in rats and 30 mg/kg/dose in rabbits.

[3] = off-target liabilities in vitro; settings: read-out: lowest IC50 for off-target liabilities
Source text: as §1

[4] = BCS classification; assay type: physicochemical; settings: high solubility, low permeability
Protocol: AUC48h was approximately 17% (95% Cl: 65.89-105.71%) lower in fed condition compared with fasted. These differences are aligned with BCS Class 3 (high solubility, low permeability) compound properties.

Question: Which results are given for `CCCCOc1nc(N)c2[nH]cc(Cc3ccc(CN4CCCC4)cc3)c2n1` [Compound 4]?
Answer: lowest effective concentration (LEC) for activation of human TLR7 [1]: 70 nM; IC50 [2]: 4.97 µM; IC50 [3]: ≥ 1970 nM; BCS class [4]: BCS Class 3
